Counter-ions that a name gives are not always drawn.

For experiment [1], the system named is nicotinic and muscarinic receptors. Conditions: cited from earlier work.
The subject of experiment [2] is rats. Conditions: cited from earlier work.
Experiment [3] concerns the target muscarinic receptors. Description: Inhibition of 3H-oxotremorine-M binding to hippocampal membranes. To be noted: [3H]oxotremorine ([3H]OXO) binding, muscarinic receptor affinity, rat membranes. The procedure: The hippocampus from male Sprague-Dawley rats was homogenized in 10 volumes of 0.32 M sucrose, centrifuged at 1000 x g for 10 min, and the supernatant was centrifuged at 17,000 x g for 20 min. The synaptosoma! fraction (P₂) pellet was homogenized in 50 volumes of 20 mM Tris-Cl buffer, pH 7.4, and centrifuged at 50,000 x g for 10 min. After resuspension in buffer, the suspension was preincubated for 30 min at 4 °C, and centrifuged again. The pellet was resuspended in 3 volumes of buffer and frozen at -70 °C until used.
For oxotremorine-M binding, the homogenates were incubated at 25 °C for 15 min. After incubation, the homogenates were filtered through Whatman GF/C filters with vacuum. The filters were rinsed 3X with 1 mL of cold buffer and placed in scintillation vials containing Ready Protein+ (Beckman) scintillation fluid. Radioactivity trapped on the filters was determined by liquid scintillation spectrometry. Non specific binding was determined using 1 µM atropine.
The concentration of compound required to inhibit binding 50% (IC₅₀) was calculated using the ALLFIT program.

Experiment [4] has as its target nicotinic receptors (Rattus norvegicus, UniProt P09483+P12390). Description: [3H]N-methyl-carbamyl choline ([3H]MCC) binding to rat brain cortical membranes. To be noted: selectivity for nicotinic over muscarinic receptors. The protocol: Binding to rat brain nicotinic receptors was performed using the method of Abood and Grassi. Abood, L.E. et al., Biochem. Pharmacol. 35:4199-4202 (1987). Frozen rat brain cortices (Pel-Freez Biologicals, Roger, AR) were homogenized using a Polytron (Binkmann PT-10; setting 6 for 15 sec) in 30 volumes of buffer (50 mM tris, 120 mM sodium chloride, 5 mM potassium chloride, 2 mM calcium chloride, 1 mM magnesium chloride, pH 7.3 at 4°C). The homogenate was centrifuged at 1,000 xg for 10 min. (Sorval RC-5B; SA600 rotor). The supernatant was then centrifuged at 40,000 xg for 20 min. The final pellet was resuspended in buffer at a concentration of 12 vol./gram wet weight of tissue. Final protein concentrations for each assay were determined using the Lowry et al. method. Lowry, O.H. et al., J. Biol. Chem. 193:265-275 (1951).
[³H]N-Methyl-carbamyl choline iodide ([³H]MCC) binding to rat cortices was measured by filtration. Compounds dissolved in distilled water at concentrations of 1 nM to 1 mM, were incubated with [³H]MCC (1 nM), membrane aliquots (approximately 1.5 mg./ml. protein) and buffer, in a final volume of 0.5 ml. […] Nonspecific [³H]MCC binding was determined in the presence of 10 mM nicotine. […]
Radioactivity bound was determined after a period of equilibration (at least 5 hr) in Beckman Ready Protein Scintillation Cocktail using a Beckman LS5000 TA counter with an efficiency of 43%. […]

Chain of nicotinic receptors (P09483 31-630): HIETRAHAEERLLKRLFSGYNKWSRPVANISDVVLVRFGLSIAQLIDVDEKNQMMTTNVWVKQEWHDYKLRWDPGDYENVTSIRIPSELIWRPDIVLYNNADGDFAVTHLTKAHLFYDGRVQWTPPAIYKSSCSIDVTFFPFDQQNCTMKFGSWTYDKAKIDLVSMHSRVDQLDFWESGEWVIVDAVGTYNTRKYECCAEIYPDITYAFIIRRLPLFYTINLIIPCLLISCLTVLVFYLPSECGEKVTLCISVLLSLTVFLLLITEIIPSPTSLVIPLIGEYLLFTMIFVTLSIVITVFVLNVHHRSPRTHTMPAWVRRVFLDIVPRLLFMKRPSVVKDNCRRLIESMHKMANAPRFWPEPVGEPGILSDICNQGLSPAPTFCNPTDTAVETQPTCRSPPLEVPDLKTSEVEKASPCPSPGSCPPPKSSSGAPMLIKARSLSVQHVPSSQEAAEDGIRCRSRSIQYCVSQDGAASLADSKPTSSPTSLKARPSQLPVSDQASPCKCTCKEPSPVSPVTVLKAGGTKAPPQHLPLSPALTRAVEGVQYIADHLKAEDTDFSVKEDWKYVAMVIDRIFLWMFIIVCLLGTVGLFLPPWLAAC
Chain of nicotinic receptors (P12390 25-500): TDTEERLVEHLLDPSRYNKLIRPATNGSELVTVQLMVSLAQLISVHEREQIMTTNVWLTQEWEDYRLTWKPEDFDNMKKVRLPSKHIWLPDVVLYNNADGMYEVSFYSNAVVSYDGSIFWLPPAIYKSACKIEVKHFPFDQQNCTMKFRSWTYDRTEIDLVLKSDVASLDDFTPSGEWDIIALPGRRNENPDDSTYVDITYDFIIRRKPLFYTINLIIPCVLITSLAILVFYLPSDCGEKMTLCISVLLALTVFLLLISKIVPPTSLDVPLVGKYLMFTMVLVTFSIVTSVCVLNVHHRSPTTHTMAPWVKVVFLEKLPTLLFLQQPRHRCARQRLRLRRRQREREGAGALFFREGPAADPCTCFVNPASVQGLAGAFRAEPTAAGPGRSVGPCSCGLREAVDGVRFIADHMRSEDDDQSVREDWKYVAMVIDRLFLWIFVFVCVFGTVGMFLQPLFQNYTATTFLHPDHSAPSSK

Take “1-methyl-4-acetyl-1,2,3,6-tetrahydropyridine [isoarecolone methiodide]”: the “agonist which binds to nicotinic and muscarinic receptors” value in experiment [1] is “very potent agonist”. Besides, the “nicotine-like discriminative stimulus effects” value in experiment [2] was “produce nicotine-like discriminative stimulus effects”.

As to `CCC(C)C(=O)C1=CCN(C)CC1` (stereo not drawn) [Example 11, 1-(1,2,3.6-Tetrahydro-1-methyl-4-pyridinyl)-2-methylbutanone], in experiment [3], the inhibitory constant (Ki) was 4.79 µM.

`CN1CC=C(C(=O)C(C)(C)C)CC1` [Example 12, 1-(1,2,3,6-Tetrahydro-1-methyl-4-pyridinyl)-2,2-dimethylpropanone] came in with an inhibition constant (Ki) in experiment [3] of 6.25 µM. Moreover, the “Ki Ratio OXO/MCC” value in experiment [4] is 110.

As for `CC(=O)C1=CCN(C)CC1` [isoarecolone HCl], in experiment [2], the “nicotine-like discriminative stimulus effects” value is listed as “produce nicotine-like discriminative stimulus effects”.

As a reminder, the Ki is a dissociation constant, usually derived from enzyme kinetics or from competition with a known ligand. A high value points to lower affinity.

Values taken from patent EP0537993A1, “Nicotinic activity of a series of arecolones and isoarecolones” (ELI LILLY AND COMPANY, priority 1991, dated 1993).
